Earlier results in article PMC10151178 (Brain, 2023).

Test system: IIH patients
Source text: The minimal clinically important change in ICP in those with IIH has yet to be determined.[38] […] In this trial ...

CC(=O)Nc1nnc(S(N)(=O)=O)s1 [acetazolamide]
Magnitude of treatment effect on ICP between trial arms (acetazolamide and diet): 5.9 cmCSF | Patients who withdrew due to adverse effects (over a 3-month period, previous randomized controlled trial): 48%
